Values belong to the molecule of their own block, whether it stands above or below them. Activity calls are given as the source filed them.
Experiments:
Hexokinase HKDC1 = molecular target: T1, Hexokinase HKDC1 (Homo sapiens, UniProt Q2TB90); assay: HKDC1 hexokinase inhibitors, dose response, biochemical, W721R variant (AID 504729); type: functional
T1 sequence (Q2TB90 whole entry): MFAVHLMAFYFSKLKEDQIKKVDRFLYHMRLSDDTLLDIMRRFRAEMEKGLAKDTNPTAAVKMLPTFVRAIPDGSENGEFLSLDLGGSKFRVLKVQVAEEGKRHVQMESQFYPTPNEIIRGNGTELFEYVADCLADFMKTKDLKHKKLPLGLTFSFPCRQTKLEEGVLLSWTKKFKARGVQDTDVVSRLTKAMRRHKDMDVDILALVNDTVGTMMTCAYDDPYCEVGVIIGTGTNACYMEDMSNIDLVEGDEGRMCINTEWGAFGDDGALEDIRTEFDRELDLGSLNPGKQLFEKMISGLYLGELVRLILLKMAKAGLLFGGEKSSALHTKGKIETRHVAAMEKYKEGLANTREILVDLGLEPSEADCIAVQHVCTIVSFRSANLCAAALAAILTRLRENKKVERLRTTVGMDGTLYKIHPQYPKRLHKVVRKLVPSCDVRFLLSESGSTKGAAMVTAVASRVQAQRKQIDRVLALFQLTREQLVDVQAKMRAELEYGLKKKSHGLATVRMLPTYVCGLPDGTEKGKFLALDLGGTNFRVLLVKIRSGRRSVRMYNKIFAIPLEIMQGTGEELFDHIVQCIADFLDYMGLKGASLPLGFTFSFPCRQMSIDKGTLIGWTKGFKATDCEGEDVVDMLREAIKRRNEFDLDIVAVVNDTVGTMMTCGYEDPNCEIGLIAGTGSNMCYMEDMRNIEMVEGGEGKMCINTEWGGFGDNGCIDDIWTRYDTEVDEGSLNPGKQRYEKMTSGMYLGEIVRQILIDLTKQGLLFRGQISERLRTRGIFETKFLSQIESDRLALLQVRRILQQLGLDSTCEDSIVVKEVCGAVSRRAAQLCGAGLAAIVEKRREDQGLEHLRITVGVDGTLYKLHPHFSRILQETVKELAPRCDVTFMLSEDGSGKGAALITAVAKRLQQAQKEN

[1] = inhibitors of PGC1a acetylation in cells, dose response, cell-based, cherry-picked samples (AID 720514); type: functional;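 note: potency may reflect raised or lowered acetylation signal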
[2] = molecular target: T2, Microphthalmia-associated transcription factor (Homo sapiens, UniProt O75030); assay: TRPM1 promoter luciferase signal decrease, dose response, MITF inhibitor project, cell-based, SK-MEL-5, cherry-picked, set 3 (AID 493073); type: functional
T2 sequence (O75030 whole entry): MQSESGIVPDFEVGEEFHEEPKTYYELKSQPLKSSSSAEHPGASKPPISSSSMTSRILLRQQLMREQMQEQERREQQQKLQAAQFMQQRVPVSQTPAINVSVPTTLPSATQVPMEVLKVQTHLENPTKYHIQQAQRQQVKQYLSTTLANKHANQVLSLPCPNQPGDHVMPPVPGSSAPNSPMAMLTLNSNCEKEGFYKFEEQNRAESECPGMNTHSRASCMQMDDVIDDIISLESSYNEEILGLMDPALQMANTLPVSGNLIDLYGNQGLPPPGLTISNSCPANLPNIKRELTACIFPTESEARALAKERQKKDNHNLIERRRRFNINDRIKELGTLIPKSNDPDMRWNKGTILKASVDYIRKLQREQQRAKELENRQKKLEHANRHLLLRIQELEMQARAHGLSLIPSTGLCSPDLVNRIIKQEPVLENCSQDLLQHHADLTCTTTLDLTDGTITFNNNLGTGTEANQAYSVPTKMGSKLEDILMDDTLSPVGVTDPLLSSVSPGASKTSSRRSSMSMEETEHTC

[3] = molecular target: Sphingosine 1-phosphate receptor 1 (Homo sapiens, UniProt P21453); type: functional;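 note: Tango beta-arrestin reporter U2OS cells stimulated with S1P near its EC80; inhibitor potency meaning antagonism of receptor activation by the natural agonist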
[4] = MC4R antagonists, dose response, counter-screen for LGR2 antagonist project, cell-based, plate reader, cherry pick (AID 743444); type: functional;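 note: transfected HEK 293 cells stimulated with alpha-MSH peptide; potency of inhibitors of the alpha-MSH evoked signal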
Paired box protein Pax-8 = Paired box protein Pax-8 (Homo sapiens, UniProt Q06710); assay: inhibitors of PAX8-driven TPO luciferase reporter, dose response, RMG-I cells, cherry-pick (AID 687027); type: functional, cell-based;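 note: luciferase reporter driven by Pax8 target thyroperoxidase promoter measured by SteadyGlo luminescence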
[5] = inhibitors of intracellular T. cruzi replication, confirmation, NIH3T3 host cells, beta-gal luminescence (AID 2044); type: functional, cell-based;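 note: intracellular parasites grown in NIH/3T3 mouse fibroblasts as host cells; luminescent beta-galactosidase reporter signal from transgenic T. cruzi replicating inside host cells; inhibitors lower the luminescence signal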
[6] = LGR2 antagonists, dose response, cell-based, HEK293, CRE-luciferase reporter, cherry pick, set 2 (AID 743343); type: functional;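 note: transfected cells were stimulated with diluted bursicon conditioned medium after compound addition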
[7] = A549 cell cytotoxicity, dose response, cytotoxicity control, plate reader, cherry-pick, antagonist series (AID 743412); type: functional, cell-based
[8] = HEK293 cell cytotoxicity, dose response, cytotoxicity control, plate reader, cherry-picked samples (AID 743446); type: functional, cell-based
[9] = HepG2 cell cytotoxicity, dose response, cytotoxicity control, plate reader, cherry-pick, antagonist series (AID 743416); type: functional, cell-based
[10] = cytotoxicity toward NIH3T3 fibroblasts, dose response, counter-screen, cell-based, ATP luminescence, mouse fibroblasts (AID 2010); type: functional;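 note: cells exposed to compound for about 90 hours before reading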
[11] = molecular target: Sphingosine 1-phosphate receptor 4 (Homo sapiens, UniProt O95977); assay: Fluorescence dose response cell-based high throughput screening assay for antagonists of the Sphingosine 1-Phosphate Receptor 4 (S1P4). [Related pubchem assays: 1524 (Confirmation in triplicates.), 1510 (Primary screen.)]; type: functional
[12] = molecular target: T3, Heat shock factor protein 1 (Mus musculus, UniProt P38532); assay: HSF1 potentiators in luciferase reporter cells, confirmation, cell-based, NIH3T3, luminescence, dose retest (AID 435004); type: functional;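 note: stress induced by proteasome inhibitor MG132 added 30 min after compound; luciferase reporter driven by HSF1 response element in NIH3T3 cells; actives raise luminescence as potentiators of the MG132 stress response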
T3 sequence (P38532 whole entry): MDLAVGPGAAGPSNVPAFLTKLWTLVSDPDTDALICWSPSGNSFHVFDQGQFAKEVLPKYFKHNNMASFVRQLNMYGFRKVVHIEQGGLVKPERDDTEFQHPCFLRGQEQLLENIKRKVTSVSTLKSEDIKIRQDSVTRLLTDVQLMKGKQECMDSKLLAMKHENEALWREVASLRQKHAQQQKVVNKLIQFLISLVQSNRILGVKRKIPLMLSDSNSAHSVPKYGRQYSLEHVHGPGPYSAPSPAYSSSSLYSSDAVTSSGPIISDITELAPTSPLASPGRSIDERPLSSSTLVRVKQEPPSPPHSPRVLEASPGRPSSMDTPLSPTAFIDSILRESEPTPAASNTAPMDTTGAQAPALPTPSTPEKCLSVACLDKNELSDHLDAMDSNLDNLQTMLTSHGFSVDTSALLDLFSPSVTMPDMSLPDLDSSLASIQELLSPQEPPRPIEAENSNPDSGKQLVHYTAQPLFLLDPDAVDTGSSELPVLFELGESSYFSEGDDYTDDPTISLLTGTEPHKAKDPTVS

[13] = molecular target: T4, Corticotropin-releasing factor receptor 2/Corticotropin-releasing factor-binding protein (Homo sapiens, UniProt P24387+Q13324); assay: activators of CRF receptor 2 with binding protein – uHTS hits, confirmation (AID 602473); type: functional; conditions: read-out: EC50_Mean
T4 sequence (Q13324 whole entry): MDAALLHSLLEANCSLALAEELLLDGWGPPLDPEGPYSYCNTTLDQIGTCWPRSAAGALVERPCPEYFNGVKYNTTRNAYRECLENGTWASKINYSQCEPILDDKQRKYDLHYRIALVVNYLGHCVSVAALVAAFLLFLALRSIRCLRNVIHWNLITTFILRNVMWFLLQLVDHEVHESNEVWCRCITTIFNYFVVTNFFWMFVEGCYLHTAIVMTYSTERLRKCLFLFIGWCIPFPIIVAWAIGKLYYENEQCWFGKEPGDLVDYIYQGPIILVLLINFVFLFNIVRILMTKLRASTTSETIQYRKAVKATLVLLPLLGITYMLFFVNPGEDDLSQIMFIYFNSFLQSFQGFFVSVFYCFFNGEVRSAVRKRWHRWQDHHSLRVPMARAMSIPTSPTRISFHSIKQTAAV
T4 sequence (P24387 whole entry): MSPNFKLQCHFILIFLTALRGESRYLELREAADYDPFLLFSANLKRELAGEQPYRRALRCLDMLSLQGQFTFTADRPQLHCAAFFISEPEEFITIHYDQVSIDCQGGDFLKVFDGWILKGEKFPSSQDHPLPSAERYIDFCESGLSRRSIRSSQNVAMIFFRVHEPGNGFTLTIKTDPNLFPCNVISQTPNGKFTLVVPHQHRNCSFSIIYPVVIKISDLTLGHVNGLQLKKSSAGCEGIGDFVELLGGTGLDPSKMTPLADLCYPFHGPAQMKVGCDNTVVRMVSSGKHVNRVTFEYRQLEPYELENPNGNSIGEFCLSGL

NS3 = NS3 (Hepatitis C virus, UniProt A3EZJ3); assay: PubChem AID 2173; parameters: species or system Hepacivirus hominis
[14] = molecular target: DNA (cytosine-5)-methyltransferase 1 (Homo sapiens, UniProt P26358); assay: DNMT1 methyltransferase inhibitors, confirmation, biochemical, fluorescent molecular beacon (AID 602386); type: functional
Albumin = Albumin (Bos taurus, UniProt P02769); assay: Counterscreen for inhibitors of T-cell receptor (TCR)-CD3 interaction: Fluorescence-based biochemical high throughput dose response assay to identify inhibitors of T-cell receptor (TCR)-CD3 interaction using a TAMRA-labeled BSA probe.; type: functional
[15] = molecular target: T5, Small ubiquitin-related modifier 1 (Homo sapiens, UniProt P63165); assay: inhibitors of SUMO1 partner interactions, dose response, biochemical, FRET (AID 624383); type: functional; conditions: read-out: IC50_Mean
[16] = molecular target: Induced myeloid leukemia cell differentiation protein Mcl-1 (Homo sapiens, UniProt Q07820); type: functional
[17] = molecular target: T5, Small ubiquitin-related modifier 1; assay: inhibitors of SUMO1 peptide binding, dose response, biochemical, fluorescence polarization, uHTS hits (AID 624382); type: functional; conditions: read-out: IC50_Mean

T5 sequence (P63165 whole entry): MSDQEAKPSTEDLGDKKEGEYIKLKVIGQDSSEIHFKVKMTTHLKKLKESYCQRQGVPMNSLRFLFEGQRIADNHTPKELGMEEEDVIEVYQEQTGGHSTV
Sequence of NS3 (A3EZJ3 whole entry): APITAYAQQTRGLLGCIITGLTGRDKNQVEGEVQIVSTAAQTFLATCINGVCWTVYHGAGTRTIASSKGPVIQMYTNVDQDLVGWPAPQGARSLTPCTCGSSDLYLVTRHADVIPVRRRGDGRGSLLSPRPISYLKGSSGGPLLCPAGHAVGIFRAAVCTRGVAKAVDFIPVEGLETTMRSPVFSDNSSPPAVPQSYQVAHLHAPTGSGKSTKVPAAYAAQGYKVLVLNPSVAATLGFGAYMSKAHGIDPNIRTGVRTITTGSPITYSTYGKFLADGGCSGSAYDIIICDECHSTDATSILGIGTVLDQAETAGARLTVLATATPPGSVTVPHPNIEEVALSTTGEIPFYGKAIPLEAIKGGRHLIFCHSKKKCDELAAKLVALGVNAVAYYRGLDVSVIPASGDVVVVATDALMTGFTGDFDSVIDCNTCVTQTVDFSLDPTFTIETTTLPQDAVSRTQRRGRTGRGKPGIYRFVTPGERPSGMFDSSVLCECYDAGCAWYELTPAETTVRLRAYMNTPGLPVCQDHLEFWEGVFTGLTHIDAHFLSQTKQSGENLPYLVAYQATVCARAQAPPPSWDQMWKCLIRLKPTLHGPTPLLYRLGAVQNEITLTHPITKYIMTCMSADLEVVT
Sequence of Sphingosine 1-phosphate receptor 4 (O95977 whole entry): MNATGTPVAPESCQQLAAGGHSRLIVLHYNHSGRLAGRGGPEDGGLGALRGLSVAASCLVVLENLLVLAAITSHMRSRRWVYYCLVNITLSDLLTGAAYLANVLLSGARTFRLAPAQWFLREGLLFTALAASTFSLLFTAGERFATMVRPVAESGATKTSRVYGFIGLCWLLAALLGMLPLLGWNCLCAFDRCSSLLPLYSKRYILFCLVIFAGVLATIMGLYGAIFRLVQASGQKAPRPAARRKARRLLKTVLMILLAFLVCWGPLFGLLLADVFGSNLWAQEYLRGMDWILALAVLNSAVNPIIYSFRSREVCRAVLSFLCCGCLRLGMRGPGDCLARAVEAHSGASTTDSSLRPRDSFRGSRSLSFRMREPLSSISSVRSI
Sequence of Albumin (P02769 whole entry): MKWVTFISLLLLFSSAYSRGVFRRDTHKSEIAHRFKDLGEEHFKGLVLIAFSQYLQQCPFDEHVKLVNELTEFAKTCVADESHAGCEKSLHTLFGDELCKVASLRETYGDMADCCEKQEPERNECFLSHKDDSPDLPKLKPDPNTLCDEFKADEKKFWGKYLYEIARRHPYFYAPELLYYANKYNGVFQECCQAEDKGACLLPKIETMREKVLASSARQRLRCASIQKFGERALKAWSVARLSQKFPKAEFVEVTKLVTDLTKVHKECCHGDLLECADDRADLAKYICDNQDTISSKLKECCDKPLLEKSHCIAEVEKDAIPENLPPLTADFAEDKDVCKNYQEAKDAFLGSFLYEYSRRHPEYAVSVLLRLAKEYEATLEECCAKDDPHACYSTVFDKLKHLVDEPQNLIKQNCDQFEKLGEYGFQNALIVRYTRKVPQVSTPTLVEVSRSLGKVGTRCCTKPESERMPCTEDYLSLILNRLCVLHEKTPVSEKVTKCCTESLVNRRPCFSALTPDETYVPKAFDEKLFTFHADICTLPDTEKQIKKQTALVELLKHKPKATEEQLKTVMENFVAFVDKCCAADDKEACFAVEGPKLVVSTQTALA
Sequence of Paired box protein Pax-8 (Q06710 whole entry): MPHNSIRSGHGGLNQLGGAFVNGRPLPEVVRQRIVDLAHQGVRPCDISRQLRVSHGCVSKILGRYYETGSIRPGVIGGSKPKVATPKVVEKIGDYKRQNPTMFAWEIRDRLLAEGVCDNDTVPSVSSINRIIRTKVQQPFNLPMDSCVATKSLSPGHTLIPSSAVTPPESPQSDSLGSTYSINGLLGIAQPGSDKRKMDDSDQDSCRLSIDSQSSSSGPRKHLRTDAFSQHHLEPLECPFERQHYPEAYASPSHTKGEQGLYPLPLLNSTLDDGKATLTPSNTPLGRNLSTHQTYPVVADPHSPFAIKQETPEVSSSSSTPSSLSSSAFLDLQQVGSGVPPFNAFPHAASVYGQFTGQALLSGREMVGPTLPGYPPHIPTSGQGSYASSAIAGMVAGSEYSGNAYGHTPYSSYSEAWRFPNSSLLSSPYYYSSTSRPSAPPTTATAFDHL
Sequence of Sphingosine 1-phosphate receptor 1 (P21453 whole entry): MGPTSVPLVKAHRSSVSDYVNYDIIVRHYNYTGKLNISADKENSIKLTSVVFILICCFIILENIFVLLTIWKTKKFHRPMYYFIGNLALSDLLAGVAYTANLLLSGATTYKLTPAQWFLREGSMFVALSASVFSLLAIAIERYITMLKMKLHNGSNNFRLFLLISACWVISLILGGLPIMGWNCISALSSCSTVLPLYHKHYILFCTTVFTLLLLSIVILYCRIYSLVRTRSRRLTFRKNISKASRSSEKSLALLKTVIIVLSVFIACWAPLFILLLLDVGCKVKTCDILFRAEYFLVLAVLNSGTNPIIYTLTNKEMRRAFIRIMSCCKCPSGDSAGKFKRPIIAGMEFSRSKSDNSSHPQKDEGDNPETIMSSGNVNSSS
Sequence of Induced myeloid leukemia cell differentiation protein Mcl-1 (Q07820 whole entry): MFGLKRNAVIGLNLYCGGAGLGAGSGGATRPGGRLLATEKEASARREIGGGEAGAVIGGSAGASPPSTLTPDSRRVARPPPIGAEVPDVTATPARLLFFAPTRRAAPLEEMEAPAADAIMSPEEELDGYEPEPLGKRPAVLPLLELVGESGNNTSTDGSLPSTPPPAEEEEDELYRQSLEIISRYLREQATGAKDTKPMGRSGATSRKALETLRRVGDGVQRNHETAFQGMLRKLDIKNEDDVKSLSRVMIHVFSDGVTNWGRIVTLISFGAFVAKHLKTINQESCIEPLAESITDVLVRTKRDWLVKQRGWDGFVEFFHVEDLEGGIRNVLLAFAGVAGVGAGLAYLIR
Sequence of DNA (cytosine-5)-methyltransferase 1 (P26358 whole entry): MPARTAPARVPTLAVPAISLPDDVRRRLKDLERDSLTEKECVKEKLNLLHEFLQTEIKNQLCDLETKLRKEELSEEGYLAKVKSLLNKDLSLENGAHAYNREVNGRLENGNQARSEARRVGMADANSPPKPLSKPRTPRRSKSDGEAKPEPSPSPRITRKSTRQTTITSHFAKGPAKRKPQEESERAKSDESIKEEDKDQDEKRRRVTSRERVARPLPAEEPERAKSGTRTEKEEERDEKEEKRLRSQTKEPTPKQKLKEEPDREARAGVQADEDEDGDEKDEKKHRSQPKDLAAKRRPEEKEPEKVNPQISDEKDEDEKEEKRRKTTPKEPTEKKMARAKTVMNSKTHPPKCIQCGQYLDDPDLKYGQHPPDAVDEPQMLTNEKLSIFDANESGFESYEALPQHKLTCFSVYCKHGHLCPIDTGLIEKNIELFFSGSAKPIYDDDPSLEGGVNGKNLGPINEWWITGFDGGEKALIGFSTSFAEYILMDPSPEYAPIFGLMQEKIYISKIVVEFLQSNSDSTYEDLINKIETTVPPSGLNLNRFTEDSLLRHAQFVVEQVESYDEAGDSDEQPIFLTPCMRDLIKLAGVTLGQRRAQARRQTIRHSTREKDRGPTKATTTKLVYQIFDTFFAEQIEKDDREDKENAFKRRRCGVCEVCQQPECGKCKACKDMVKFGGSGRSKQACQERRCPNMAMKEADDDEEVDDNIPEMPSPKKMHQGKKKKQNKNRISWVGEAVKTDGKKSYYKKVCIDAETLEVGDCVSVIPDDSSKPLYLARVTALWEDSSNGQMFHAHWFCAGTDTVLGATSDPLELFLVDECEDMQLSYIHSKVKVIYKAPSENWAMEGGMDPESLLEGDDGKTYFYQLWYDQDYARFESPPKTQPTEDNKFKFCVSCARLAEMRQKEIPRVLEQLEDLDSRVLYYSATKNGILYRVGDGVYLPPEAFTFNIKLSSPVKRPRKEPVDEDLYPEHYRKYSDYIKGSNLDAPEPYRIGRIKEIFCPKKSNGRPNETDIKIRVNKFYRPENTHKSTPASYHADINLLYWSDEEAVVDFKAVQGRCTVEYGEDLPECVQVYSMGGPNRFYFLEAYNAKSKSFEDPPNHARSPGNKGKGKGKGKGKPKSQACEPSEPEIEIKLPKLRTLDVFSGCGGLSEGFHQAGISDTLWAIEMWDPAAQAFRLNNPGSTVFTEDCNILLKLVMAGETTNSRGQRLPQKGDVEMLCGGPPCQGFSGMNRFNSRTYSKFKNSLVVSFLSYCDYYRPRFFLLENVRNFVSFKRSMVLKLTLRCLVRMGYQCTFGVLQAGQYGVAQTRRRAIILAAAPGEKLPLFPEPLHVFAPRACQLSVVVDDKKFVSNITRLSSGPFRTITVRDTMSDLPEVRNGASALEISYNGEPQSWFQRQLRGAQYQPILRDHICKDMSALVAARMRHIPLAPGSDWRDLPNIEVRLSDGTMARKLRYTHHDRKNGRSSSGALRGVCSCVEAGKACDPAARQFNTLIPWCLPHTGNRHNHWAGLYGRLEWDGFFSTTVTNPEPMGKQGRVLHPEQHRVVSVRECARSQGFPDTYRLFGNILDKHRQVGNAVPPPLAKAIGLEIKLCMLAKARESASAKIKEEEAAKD

- IC50 (Hexokinase HKDC1): 9.27 µM (active)
Compound: O=C(CSc1nnc(CCCN2C(=O)c3cccc4cccc(c34)C2=O)n1-c1ccccc1)N1CCN(CCO)CC1

Compound: O=C1CN(C(=O)Cn2ncc(Cl)c(Cl)c2=O)c2ccccc2N1
- AC50 [1]: 4.16 µM (active)
- AC50 [2]: 8.67 µM (active)
- IC50 [3]: 13.6 µM (not active)
- AC50 [4]: 15.4 µM (active)
- AC50 (Paired box protein Pax-8): 2.19 µM (active)
- EC50 [5]: 2.11 µM (active)
- AC50 [6]: 18.7 µM (active)
- AC50 [7]: 11.8 µM (active)
- AC50 [8]: 8.59 µM (active)
- AC50 [9]: 25.6 µM (active)
- EC50 [10]: 2.61 µM (active)
- IC50 [11]: 3.18 µM (active)

- EC50 [12]: > 260 µM (inactive)
- EC50 [13]: 11.3 µM (active)
- IC50 (NS3): 5.88 µM (active)
Compound: Cc1cccc(N2C(=O)C(O)=C(C(=O)c3cccs3)C2c2ccc(C(C)C)cc2)n1 (configuration not stated)

Compound: O=C(O)c1ccccc1/C=N/NC(=O)c1cc(-c2ccco2)nc2ccccc12
- IC50 [14]: 5.4 µM (active)
- IC50 (Albumin): > 94.1 µM (inactive)
- IC50 [15]: 9.51 µM (active)
- IC50 [16]: 2.54 µM (active)
- IC50 (NS3): 7.35 µM (active)
- IC50 [17]: > 66.6 µM (inactive)
